Results taken from patent US5488055A, “Substituted N-cycloalkylmethyl-1H-pyrazolo(3,4-b)quinolin-4 amines and compositions and methods of use thereof” (Sanofi Winthrop Inc., priority 1995, dated 1996).
Where two headings read alike, the source gives them in different places. Blank lines part the entries; values can stand above or below the compound they belong to.

What was measured:
[1] = system: Spontaneously hypertensive rats (SHR); test: Antihypertensive activity in spontaneously hypertensive rats, iv; format: in vivo, rat; settings: Rattus norvegicus, 5 min, 10 mg/kg, cumulative dosing, 5 minutes after dose, read-out: % change in mean arterial pressure
Experimental: After a 2 day recovery from surgery, three baseline blood pressure measurements were made at 5 min intervals in conscious SHR. Compounds to be tested or vehicle were then administered intravenously in a dose-dependent manner (0.3-10 mg base/kg) while arterial pressure was recorded continuously on a polygraph. The mean arterial pressure response was measured 5 minutes after the administration of each dose of the test compound and the next dose given in a cumulative dose fashion. The response to each dose of the test compound was calculated as the difference from the mean of the three baseline measurements.

cGMP-PDE V [2] = test: c-GMP-PDE V inhibitory activity; format: biochemical, various animal species and man
Experimental: The cGMP-PDE and other PDE isozymes were isolated from cardiovascular tissues (heart and aorta) of various animal species and man by anion-exchange and affinity chromatography as described by Silver et al., Sec. Messeng. Phos. 13:13-25, 1991; PDE activity, in the presence and absence of test compounds was determined essentially as described by Thompson et al., Adv. Cyclic Nucleotide Res. 10:69-92. To determine the potency and selectivity of compounds as PDE inhibitors, compounds are screened for their effect on cyclic nucleotide hydrolysis at 10 μM. […] The IC50 values are calculated from concentration-response curves as described by Tallarida and Murray, Manual of Pharmacologic Calculations with Computer Programs, Procedure 8, Graded Dose-response, pp. 14-19, Springer-Verlag, New York, 1981.

[3] = system: Spontaneously hypertensive rats; test: Reversal of nitrate-induced tolerance in nitroglycerin tolerant spontaneously hypertensive rats; format: in vivo, rat
Experimental: Spontaneously hypertensive rats (17-25 weeks of age) were made nitroglycerin tolerant by repeated administration of high doses of nitroglycerin (100 mg/kg, s.c., 3 times/day for 3 consecutive days). To confirm tolerance challenge doses of nitroglycerin were administered intravenously at doses ranging from 1-300 μg/kg and the maximum change in mean arterial pressure (MAP) for each dose was recorded. Groups of tolerant rats were pretreated with the compounds of the invention (tolerant pretreated group) or with vehicle (0.05 N NaOH) (tolerant vehicle pretreated group) intravenously 5-10 minutes prior to administration of challenge doses of nitroglycerin. The administration of challenge doses of nitroglycerin to non-tolerant rats (the non-tolerant group) caused a dose-dependent decrease in MAP of between 10 to 40 mm Hg. […] The area under the dose-MAP curve was calculated for the non-tolerant group and for the tolerant vehicle pretreated group and the tolerant pretreated group. The percent reversal of nitrate-induced tolerance was calculated as follows:
Percent Reversal=(AUCtol-pretreated -AUCtol-veh) /(AUCnontol
AUCnontol =the area under the dose-MAP curve for the non-tolerant group.
AUCtol-veh =the area under the dose-MAP curve for the tolerant vehicle pretreated group.
AUCtol-pretreated =the area under the dose-MAP curve for the tolerant pretreated group. […]

[4] = Crenshaw et al., J. Med. Chem. 1976; cited from earlier work
cGMP-PDE V [5] = settings: read-out: Km for the hydrolysis of cGMP; isozyme of vascular smooth muscle and renal cells; cited from earlier work

IC50 (cGMP-PDE V [2]): 91 nM
SMILES: CCn1ncc2c(NCC3CCCCC3)c3cc(OCC4CO4)ccc3nc21 (stereo not drawn) [Example 21, 1-ethyl-6-(2,3-epoxypropoxy)-N-(cyclohexylmethyl)-1H-pyrazolo[3,4-b]quinolin-4amine]
change in vivo at 10 mg/kg [1]: -12%

IC50 (cGMP-PDE V [2]): 74 nM
SMILES: CCn1ncc2c(NCC3CCCCC3)c3cc(OC(C)C(=O)O)ccc3nc21 (stereo not drawn) [Example 22, 1-ethyl-6-(1-carboxyethoxy)-N-(cyclohexylmethyl)-1H-pyrazolo[3,4-b]quinolin-4-amine]
change in vivo at 10 mg/kg [1]: -7%

SMILES: CCn1ncc2c(N[C@@H](C)C3CCCCC3)c3cc([N+](=O)[O-])ccc3nc21 [Example 34, 1-ethyl-6-nitro-N-[S(+)-1-(cyclohexyl)ethyl]-1H-pyrazolo[3,4-b]quinolin-4-amine]
IC50 (cGMP-PDE V [2]; separate experimental runs, first value): 0.22 nM
IC50 (cGMP-PDE V [2]; separate experimental runs, second value): 0.16 nM
IC50 (cGMP-PDE V [2]; separate experimental runs, third value): 0.08 nM
Percent (%) Reversal of Nitroglycerin-induced Tolerance ([3]; 1.0 mg/kg, intravenously 5-10 minutes prior to nitroglycerin challenge): 44%

SMILES: Cc1nn(C)c2nc3ccccc3c(NCCCNC34CC5CC(CC(C5)C3)C4)c12 [N-(1,3-dimethyl-1H-pyrazolo[3,4-b]quinolin-4-yl)-N'-tricyclo[3.3.1.1^3.7]dec-1-yl-1,3-propane diamine]
activity in the interferon assay [4]: inactive

SMILES: Cc1nn(C)c2nc3ccccc3c(NCc3cccnc3)c12 [N-(3-pyridinylmethyl)]
activity in the interferon assay [4]: inactive

SMILES: Cc1nn(C)c2nc3ccccc3c(NCc3ccccc3N(C)C)c12 [N-[[2-(dimethylamino)phenyl]methyl]-1,3-dimethyl-1H-pyrazolo[3,4-b]quinolin-4-amines]
activity in the interferon assay [4]: inactive

SMILES: Cc1nn(C)c2nc3ccccc3c(NC3CC3)c12 [N-cyclopropyl]
activity in the interferon assay [4]: inactive

SMILES: Cc1nn(C)c2nc3ccccc3c(NC34CC5CC(CC(C5)C3)C4)c12 [N-tricyclo[3.3.1.13,7]dec-1-yl]
activity in the interferon assay [4]: inactive

SMILES: Nc1nc2c(ncn2[C@@H]2O[C@@H]3COP(=O)(O)O[C@H]3[C@H]2O)c(=O)[nH]1 [cGMP, cyclic guanosine monophosphate]
Km (cGMP-PDE V [5]): 1 µM

SMILES: O=[N+]([O-])OCC(CO[N+](=O)[O-])O[N+](=O)[O-] [nitroglycerin, reference compound]
hypotensive response to challenge doses of nitroglycerin, in words ([3]; tolerant vehicle pretreated group): significant reduction of the hypotensive response
